Assay results from PubChem BioAssay (NCI).
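All cell lines were grown in 96-well plates and treated with compound for 48 hours. Here, GI50 denotes the concentration required for 50% inhibition of growth. Definition used: TGI = concentration required for complete inhibition of growth.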

Assays:
Assay in all cases: NCI anticancer screen, dose series, 48 h; in the data active = GI50 below about 0.43 µM; inactive = the rest
786-0 renal = system: 786-0 renal
A498 renal = system: A498 renal
A549 NSCLC = system: A549 NSCLC
ACHN renal = system: ACHN renal
BT-549 breast = system: BT-549 breast
CAKI-1 renal = system: CAKI-1 renal
CCRF-CEM leukemia = system: CCRF-CEM leukemia
COLO 205 colon = system: COLO 205 colon
DU-145 prostate = system: DU-145 prostate
HCC-2998 colon = system: HCC-2998 colon
HCT-116 colon = system: HCT-116 colon
HCT-15 colon = system: HCT-15 colon
HL-60(TB) leukemia = system: HL-60(TB) leukemia
HOP-62 NSCLC = system: HOP-62 NSCLC
HOP-92 NSCLC = system: HOP-92 NSCLC
HS 578T breast = system: HS 578T breast
HT29 colon = system: HT29 colon
IGROV1 ovarian = system: IGROV1 ovarian
K-562 leukemia = system: K-562 leukemia
KM12 colon = system: KM12 colon
LOX IMVI melanoma = system: LOX IMVI melanoma
M14 melanoma = system: M14 melanoma
MCF7 breast = system: MCF7 breast
MDA-MB-231 breast = system: MDA-MB-231 breast
MDA-MB-435 = system: MDA-MB-435
MOLT-4 leukemia = system: MOLT-4 leukemia
NCI-H226 lung = system: NCI-H226 lung
NCI-H23 lung = system: NCI-H23 lung
NCI-H460 lung = system: NCI-H460 lung
NCI-H522 lung = system: NCI-H522 lung
NCI/ADR-RES ovarian = system: NCI/ADR-RES ovarian
OVCAR-3 ovarian = system: OVCAR-3 ovarian
OVCAR-4 ovarian = system: OVCAR-4 ovarian
OVCAR-5 ovarian = system: OVCAR-5 ovarian
OVCAR-8 ovarian = system: OVCAR-8 ovarian
PC-3 prostate = system: PC-3 prostate
RPMI-8226 leukemia = system: RPMI-8226 leukemia
RXF 393 renal = system: RXF 393 renal
SF-268 CNS = system: SF-268 CNS
SF-295 CNS = system: SF-295 CNS
SF-539 CNS = system: SF-539 CNS
SK-MEL-2 melanoma = system: SK-MEL-2 melanoma
SK-MEL-28 melanoma = system: SK-MEL-28 melanoma
SK-MEL-5 melanoma = system: SK-MEL-5 melanoma
SK-OV-3 ovarian = system: SK-OV-3 ovarian
SN12C renal = system: SN12C renal
SNB-19 CNS = system: SNB-19 CNS
SNB-75 CNS = system: SNB-75 CNS
SR leukemia = system: SR leukemia
SW-620 colon = system: SW-620 colon
T-47D breast = system: T-47D breast
TK-10 renal = system: TK-10 renal
U251 CNS = system: U251 CNS
UACC-257 melanoma = system: UACC-257 melanoma
UACC-62 melanoma = system: UACC-62 melanoma
UO-31 renal = system: UO-31 renal

CCC1=C[C@@H]2CN(C1)Cc1c([nH]c3ccccc13)[C@@](C(=O)OC)(c1cc3c(cc1OC)N(C=O)[C@H]1[C@@](O)(C(=O)OC)[C@H](OC(C)=O)[C@]4(CC)[C@@H]5C[C@@H]5CN5CC[C@]31[C@@H]54)C2
226 nM: TGI (HOP-92 NSCLC)
< 0.625 nM: TGI (HL-60(TB) leukemia) | TGI (MDA-MB-435)
1.22 nM: TGI (COLO 205 colon)
31.5 nM: TGI (SK-MEL-5 melanoma)
64.3 nM: TGI (M14 melanoma)
> 5740 nM: TGI (SNB-75 CNS)
> 6250 nM: TGI (A549 NSCLC) | TGI (ACHN renal) | TGI (CAKI-1 renal) | TGI (CCRF-CEM leukemia) | TGI (HCC-2998 colon) | TGI (HCT-15 colon) | TGI (HOP-62 NSCLC) | TGI (HS 578T breast) | TGI (HT29 colon) | TGI (IGROV1 ovarian) | TGI (K-562 leukemia) | TGI (LOX IMVI melanoma) | TGI (MCF7 breast) | TGI (MOLT-4 leukemia) | TGI (NCI-H226 lung) | TGI (NCI-H23 lung) | TGI (NCI-H460 lung) | TGI (NCI/ADR-RES ovarian) | TGI (OVCAR-4 ovarian) | TGI (OVCAR-5 ovarian) | TGI (OVCAR-8 ovarian) | TGI (PC-3 prostate) | TGI (RPMI-8226 leukemia) | TGI (RXF 393 renal) | TGI (SF-268 CNS) | TGI (SK-MEL-2 melanoma) | TGI (SK-MEL-28 melanoma) | TGI (SN12C renal) | TGI (SNB-19 CNS) | TGI (SW-620 colon) | TGI (T-47D breast) | TGI (TK-10 renal) | TGI (U251 CNS) | TGI (UACC-257 melanoma) | TGI (UACC-62 melanoma) | TGI (UO-31 renal)
20.1 nM: TGI (SF-539 CNS)
79.4 nM: TGI (A498 renal)
10 nM: TGI (NCI-H522 lung)
211 nM: TGI (BT-549 breast)
> 3190 nM: TGI (786-0 renal)
inactive: GI50 (NCI/ADR-RES ovarian) 632 nM | GI50 (UACC-257 melanoma) > 6250 nM
active: GI50 (786-0 renal) 5.87 nM | GI50 (A498 renal) 2.21 nM | GI50 (A549 NSCLC) 3 nM | GI50 (ACHN renal) 31.5 nM | GI50 (BT-549 breast) 1.66 nM | GI50 (CAKI-1 renal) 253 nM | GI50 (CCRF-CEM leukemia) < 0.625 nM | GI50 (COLO 205 colon) < 0.625 nM | GI50 (DU-145 prostate) < 0.625 nM | GI50 (HCC-2998 colon) 1.44 nM | GI50 (HCT-116 colon) < 0.625 nM | GI50 (HCT-15 colon) 107 nM | GI50 (HL-60(TB) leukemia) < 0.625 nM | GI50 (HOP-62 NSCLC) 1.58 nM | GI50 (HOP-92 NSCLC) 6.29 nM | GI50 (HS 578T breast) 1.81 nM | GI50 (HT29 colon) < 0.625 nM | GI50 (IGROV1 ovarian) 2.61 nM | GI50 (K-562 leukemia) < 0.625 nM | GI50 (KM12 colon) < 0.625 nM | GI50 (LOX IMVI melanoma) < 0.625 nM | GI50 (M14 melanoma) 1.69 nM | GI50 (MCF7 breast) < 0.625 nM | GI50 (MDA-MB-231 breast) 1.12 nM | GI50 (MDA-MB-435) < 0.625 nM | GI50 (MOLT-4 leukemia) 0.789 nM | GI50 (NCI-H23 lung) 3.18 nM | GI50 (NCI-H460 lung) 1.35 nM | GI50 (NCI-H522 lung) < 0.625 nM | GI50 (OVCAR-3 ovarian) < 0.625 nM | GI50 (OVCAR-4 ovarian) 54 nM | GI50 (OVCAR-5 ovarian) 2.55 nM | GI50 (OVCAR-8 ovarian) 2.68 nM | GI50 (PC-3 prostate) 0.826 nM | GI50 (RPMI-8226 leukemia) < 0.625 nM | GI50 (RXF 393 renal) 1.55 nM | GI50 (SF-268 CNS) 1.11 nM | GI50 (SF-295 CNS) 1.56 nM | GI50 (SF-539 CNS) 0.646 nM | GI50 (SK-MEL-2 melanoma) < 0.625 nM | GI50 (SK-MEL-28 melanoma) 1.4 nM | GI50 (SK-MEL-5 melanoma) 0.921 nM | GI50 (SK-OV-3 ovarian) < 0.625 nM | GI50 (SN12C renal) 22.8 nM | GI50 (SNB-19 CNS) 1.27 nM | GI50 (SNB-75 CNS) 0.766 nM | GI50 (SR leukemia) < 0.625 nM | GI50 (SW-620 colon) 0.656 nM | GI50 (T-47D breast) < 0.625 nM | GI50 (TK-10 renal) 315 nM | GI50 (U251 CNS) 0.676 nM | GI50 (UACC-62 melanoma) < 0.625 nM | GI50 (UO-31 renal) 173 nM
